Laboratory results taken from PubChem BioAssay (NCI).
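How tested: cells in 96-well plates exposed to compound for 48 hours at five concentrations. GI50 marks 50% less growth. The concentration for full growth arrest is given as TGI.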

Tests used:
Test in all cases: NCI-60 cell line screen, 48 h; in the data active = GI50 below about 0.43 µM; inactive = the rest
[1] = tested on: SF-295 CNS
[2] = tested on: SK-MEL-2 melanoma
[3] = tested on: NCI-H226 lung
[4] = tested on: HOP-92 NSCLC
[5] = tested on: UACC-62 melanoma
[6] = tested on: 786-0 renal
[7] = tested on: CCRF-CEM leukemia
[8] = tested on: A498 renal
[9] = tested on: NCI-H460 lung
[10] = tested on: NCI/ADR-RES ovarian
[11] = tested on: U251 CNS
[12] = tested on: MCF7 breast
[13] = tested on: BT-549 breast
[14] = tested on: HS 578T breast
[15] = tested on: KM12 colon
[16] = tested on: HCC-2998 colon
[17] = tested on: DU-145 prostate
[18] = tested on: SNB-75 CNS
[19] = tested on: MDA-MB-231 breast
[20] = tested on: SK-MEL-28 melanoma
[21] = tested on: OVCAR-8 ovarian
[22] = tested on: SF-268 CNS
[23] = tested on: CAKI-1 renal
[24] = tested on: MDA-MB-435
[25] = tested on: PC-3 prostate
[26] = tested on: COLO 205 colon
[27] = tested on: EKVX NSCLC
[28] = tested on: T-47D breast
[29] = tested on: SF-539 CNS
[30] = tested on: HCT-15 colon
[31] = tested on: RPMI-8226 leukemia
[32] = tested on: UO-31 renal
[33] = tested on: TK-10 renal
[34] = tested on: SK-MEL-5 melanoma
[35] = tested on: UACC-257 melanoma
[36] = tested on: HOP-62 NSCLC
[37] = tested on: HL-60(TB) leukemia
[38] = tested on: IGROV1 ovarian
[39] = tested on: SK-OV-3 ovarian
[40] = tested on: RXF 393 renal
[41] = tested on: HCT-116 colon
[42] = tested on: NCI-H522 lung
[43] = tested on: K-562 leukemia
[44] = tested on: ACHN renal
[45] = tested on: LOX IMVI melanoma
[46] = tested on: M14 melanoma
[47] = tested on: MALME-3M melanoma
[48] = tested on: OVCAR-5 ovarian
[49] = tested on: SN12C renal
[50] = tested on: SW-620 colon
[51] = tested on: SR leukemia
[52] = tested on: OVCAR-4 ovarian
[53] = tested on: A549 NSCLC
[54] = tested on: OVCAR-3 ovarian
[55] = tested on: HT29 colon
[56] = tested on: SNB-19 CNS
[57] = tested on: MOLT-4 leukemia

C#C[C@]1(O)CC[C@H]2[C@@H]3CC=C4c5sc(Nc6ccc(Cl)cn6)nc5CC[C@]4(C)[C@H]3CC[C@@]21C
inactive: GI50 [1] 1.82 µM | GI50 [2] 3.83 µM | GI50 [3] 7.41 µM | GI50 [4] 3.45 µM | GI50 [5] 3.23 µM | GI50 [6] 1.56 µM | GI50 [8] 2.15 µM | GI50 [9] 3.95 µM | GI50 [10] 15.9 µM | GI50 [11] 2.66 µM | GI50 [12] 1.8 µM | GI50 [13] 2.88 µM | GI50 [14] 2.17 µM | GI50 [15] 4.04 µM | GI50 [16] 66.8 µM | GI50 [17] > 100 µM | GI50 [18] 4.07 µM | GI50 [19] 3.34 µM | GI50 [20] 1.72 µM | GI50 [21] 6.32 µM | GI50 [22] 4.35 µM | GI50 [23] 3.48 µM | GI50 [24] 3.73 µM | GI50 [25] 1.68 µM | GI50 [26] 23.5 µM | GI50 [27] 3.51 µM | GI50 [28] 61.2 µM | GI50 [29] 1.62 µM | GI50 [30] 3.03 µM | GI50 [31] 1.03 µM | GI50 [32] 2.96 µM | GI50 [33] > 100 µM | GI50 [34] 79.5 µM | GI50 [35] 2.49 µM | GI50 [36] 3.31 µM | GI50 [37] 3.5 µM | GI50 [38] 9.14 µM | GI50 [39] 3.44 µM | GI50 [40] 0.642 µM | GI50 [41] 3.47 µM | GI50 [42] 10.5 µM | GI50 [43] 3.34 µM | GI50 [44] 5.07 µM | GI50 [45] 2.1 µM | GI50 [46] 3.12 µM | GI50 [47] 8.97 µM | GI50 [48] 24.1 µM | GI50 [49] > 100 µM | GI50 [50] 4.77 µM | GI50 [51] 3.08 µM | GI50 [52] 7.73 µM | GI50 [53] 6.4 µM | GI50 [54] 7.66 µM | GI50 [55] 6.83 µM | GI50 [56] 4.95 µM | GI50 [57] 2.79 µM
6.53 µM: TGI [14]
6.65 µM: TGI [35]
25.2 µM: TGI [13]
3.68 µM: TGI [20]
3.75 µM: TGI [1]
active: GI50 [7] 0.0721 µM
4.33 µM: TGI [45]
> 100 µM: TGI [2] | TGI [3] | TGI [5] | TGI [7] | TGI [9] | TGI [10] | TGI [11] | TGI [15] | TGI [16] | TGI [17] | TGI [18] | TGI [19] | TGI [21] | TGI [22] | TGI [23] | TGI [24] | TGI [26] | TGI [27] | TGI [28] | TGI [30] | TGI [32] | TGI [33] | TGI [34] | TGI [36] | TGI [37] | TGI [38] | TGI [41] | TGI [42] | TGI [43] | TGI [44] | TGI [46] | TGI [47] | TGI [48] | TGI [49] | TGI [50] | TGI [51] | TGI [52] | TGI [53] | TGI [54] | TGI [55] | TGI [56] | TGI [57]
2.25 µM: TGI [40]
4.18 µM: TGI [31]
13.4 µM: TGI [39]
4.47 µM: TGI [12]
4.03 µM: TGI [29]
6.91 µM: TGI [25]
3.42 µM: TGI [6]
4.75 µM: TGI [8]
73.4 µM: TGI [4]
